Assay: Solubility in water, with or without hydrotropes, at room temperature
Type: physicochemical

For `Nc1ncnc2c1ncn2[C@@H]1O[C@H](CO)[C@@H](O)[C@H]1O` [Adenosine], the “stability of adenosine/hydrotropes solution in water on further dilution or concentration” value was “stable” and the “concentration of stable clear solution obtained” value (5% nicotinamide and 5% caffeine in water) was 3 % (w/w).
